Values joined by “and” are separate entries in the source; they are usually repeats but may differ in a detail not shown here. Equal entries are not always repeated. Active and inactive are the calls of the source. No cut-off for these calls is given here.
Columns and labels:
[1] = Compound was tested for relative activity against the cold-induced disassembly of microtubules with respect to rhazinilam (IC50=2*10e-6M); IA means Inactive; format: functional
[2] = Inhibitory concentration of compound was determined against KB cells; IA means Inactive; format: functional, cell-based, Homo sapiens
[3] = Relative activity against the cold-induced disassembly of microtubules with respect to rhazinilam (IC50=2*10e-6M).; format: functional
[4] = Inhibitory concentration of compound was determined against KB cells; format: functional, cell-based, Homo sapiens
[5] = Compound was tested for relative activity against the cold-induced disassembly of microtubules with respect to rhazinilam (IC50=2*10e-6M); Experimemt 2; format: functional
[6] = Compound was tested for relative activity against the cold-induced disassembly of microtubules with respect to rhazinilam (IC50=2*10e-6M); Experiment 1; format: functional
[7] = Compound was tested for relative activity against the cold-induced disassembly of microtubules; IA means Inactive; format: functional
[8] = Inhibitory concentration of compound was determined against disassembly of microtubules; format: functional
[9] = Compound was tested for relative activity against the cold-induced disassembly of microtubules; format: functional

Compound	IC50 [4] [µM]	Ratio [3]	also measured
CC[C@]12CCCn3c(C=O)c(C=O)c(c31)-c1ccccc1NC(=O)CC2	–	–	Ratio [1]: inactive
CC[C@@]12CCCN(C(C)=O)c3ccccc3-c3ccn(c31)CCC2	–	80	IC50 [2]: Not Active
CC[C@]12CCCn3ccc(c31)-c1cc(Br)ccc1NC(=O)CC2	–	100	IC50 [2]: Not Active
CC[C@@]12CCCN(C(=O)OC(C)(C)C)c3ccccc3-c3ccn(c31)CCC2	10	80	–
CC[C@]1(CCC(=O)O)CCCn2ccc(-c3ccccc3N)c21	–	–	Ratio [1]: inactive
CC[C@]12CCCn3c(C=O)cc(c31)-c1ccccc1NC(=O)CC2	–	6	–
CC[C@]12CCCn3ccc(c31)-c1cc(NC(C)=O)ccc1NC(=O)CC2	–	–	Ratio [1]: inactive; IC50 [2]: Not Active
CC[C@@]12CCCN3CC=C(c4ccccc4NC(=O)CC1)C32 (stereo not given in full)	–	–	Ratio [1]: inactive
CC[C@]12CCCn3ccc(c31)-c1ccccc1N(C(=O)OC(C)(C)C)C(=O)CC2	–	80	IC50 [2]: Not Active
CC[C@]12CCCn3c(C(=O)OCc4ccc(OC)c(OC)c4OC)cc(c31)-c1ccccc1NC(=O)CC2	20	7	–
CC[C@]12CCCn3ccc(c31)-c1ccccc1N(CC(=O)O)C(=O)CC2	–	80	IC50 [2]: Not Active
CC[C@@]12CCCN3C(=O)C=C(c4ccccc4NC(=O)CC1)[C@]32O	–	–	Ratio [1]: inactive
CC[C@@]12CCCN3CC[C@@]4(C(=Nc5ccccc54)CC1)[C@H]32	–	–	Ratio [1]: inactive
CC[C@]12CCCn3ccc(c31)-c1ccccc1N(CC(=O)OCc1ccccc1)C(=O)CC2	–	80	IC50 [2]: Not Active

The next lines start with results.

IC50 [4] [µM]	Compound	Ratio [3]	also measured
10	CC[C@]12CCCn3ccc(c31)-c1ccccc1/N=C(/S)CC2	50	–
15	CC[C@]12CCCn3c(C(=O)C(F)(F)F)cc(c31)-c1ccccc1NC(=O)CC2	4	–
25	CC[C@]12CCCn3c(C(=O)C(Cl)(Cl)Cl)cc(c31)-c1ccccc1NC(=O)CC2	8	–
3	CC[C@@]12CCC(=O)Nc3ccccc3-c3ccn(c31)C(=O)CC2 [RHAZINICINE]	10	–
75	CC[C@]12CCCn3c(C(=O)O)cc(c31)-c1ccccc1NC(=O)CC2	–	Ratio [5]: 2 and 3; Ratio [6]: 5
4	CC[C@]12CCCn3c(C(=O)OC)cc(c31)-c1ccccc1NC(=O)CC2	5	–
60	CC[C@]12CCCn3ccc(c31)-c1ccccc1N(C)C(=O)CC2	4	–
3	CC[C@@]12CCC(=O)Nc3ccccc3-c3ccn(c31)C(O)CC2 (stereo not given in full)	15	–
0.5	CC[C@]12CCCn3ccc(c31)-c1ccccc1NC(=O)CC2 [RHAZINILAM]	–	Ratio [7]: inactive; IC50 [8]: 2 µM; Ratio [9]: 1
1	CC[C@@]12CCCNc3ccccc3-c3ccn(c31)CCC2	20	–

— ChEMBL document CHEMBL1130304, “Hemisynthesis of rhazinilam analogues: structure - activity relationships on tubulin-microtubule system” (Bioorg Med Chem Lett, 1997)
